Data set [1] can be described thus: maximum solubility of Resiniferatoxin by the equilibrium method (HPLC). The format is physicochemical. The settings on record: buffer medium with TPGS, 25 °C, pH 8, aqueous with cosolvent or surfactant or cyclodextrin, thermodynamic from solid, TPGS 3.5 mg/ml, n ≥ 3, read-out: RTX solubility. As to the method: The maximum solubility of Resiniferatoxin in various liquids was investigated by the equilibrium method.
Buffer media were saturated with an excess amount of Resiniferatoxin (characterized by undissolved API) and incubated at 25° C. while shaking (150 rpm) for 72 h. After incubation, 1 mL of each sample was centrifuged (10 min, 12045 RCF) and the supernatant was used to determine the amount of solubilized Resiniferatoxin via HPLC.

Data set [2] can be described thus: randomized, double-blind, placebo-controlled, single-dose trial of intraarticular Resiniferatoxin: analgesic effect (VAS pain on motion, WOMAC). The format is in vivo, human. As to the method:
(§1) The primary objective of this study was to compare the analgesic effects of single intraarticular injections of Resiniferatoxin (100 or 400 ng) compared to placebo, at 3 and 6 months postinjection, in participants with chronic osteoarthritic knee joint pain. Secondary objectives were to evaluate the analgesic effects of Resiniferatoxin versus placebo in terms of a responder analysis (percentage of subjects achieving ≥50% or ≥70% reduction in visual analog scale pain score) and changes in Western Ontario and McMaster Universities Arthritis Index (WOMAC) total and subscale scores (pain, physical function and stiffness). Safety and injection site pain were also evaluated.
(§2) The study was conducted as a randomized, double-blind, placebo-controlled, single-dose trial of Resiniferatoxin. Eligible patients were aged 40 to 80 years with radiographic knee osteoarthritis (Kellgren-Lawrence Grade 2-4 in the last 3 years) and a baseline visual analog scale (0-100 mm) pain score ≥40 mm on motion in the target knee, with or without pain medication. 67 subjects were randomized to treatment with either Resiniferatoxin 100 ng (n=24) or 400 ng (n=23), or placebo (n=20), administered intraarticularly into the index knee. Intraarticular Ropivacaine (5 ml, 0.5%) was administered 15 mins before investigational medicinal product. Visual analog scale scores were used to evaluate pain on motion as the average of the last 2 days in a target knee between baseline and at 3 and 6 months post injection. Injection site pain was rated (visual analog scale) from baseline (−0.5 h) up to 3 h post intraarticular injections.
Data values plotted as mean±standard error of mean, offset in X for clarity. ▴ Placebo (n=20); ▪ Resiniferatoxin 100 ng (n=24); ● Resiniferatoxin 400 ng (n=23).

Data set [3] can be described thus: same trial: safety, treatment emergent adverse events and injection site pain. The note with it: for subjects with severe adverse events: none related to investigational medicinal product. The format is in vivo, human. As to the method: as §1, §2
The conditions of data set [4]: cited from earlier work.
The mark [5] stands for this setting: single intraarticular 100 ng or 400 ng.

Converted amounts (≈) assume the structure as drawn. Like-named read-outs stand apart in the source and are kept apart here.

One may read the solubility as the concentration that dissolves in the medium under given conditions. With `C=C(C)[C@]12C[C@@H](C)[C@@]34O[C@](Cc5ccccc5)(O[C@@H]1[C@@H]3C=C(COC(=O)Cc1ccc(O)c(OC)c1)C[C@]1(O)C(=O)C(C)=C[C@@H]41)O2` [RTX], the solubility at 72 h came out at 333 ± 100 µg/mL (≈ 530 µM) in data set [1] (Ex. 5-1: no ethanol, NaCl 8.58, CaCl2 0.2, KCl 0.1, trometamol 0.4 mg/ml, pH 8.0, mean ± SD); 630 ± 38 µg/mL (≈ 1000 µM) in data set [1] (Ex. 5-2: ethanol 39.44 mg/ml, NaCl 8.58, CaCl2 0.58, KCl 0.3, trometamol 1.22 mg/ml, pH 8.0, mean ± SD); 336 ± 53 µg/mL in data set [1] (Ex. 5-3: ethanol 39.44 mg/ml, mannitol 14.9 mg/ml, salts as Ex. 5-2, pH 8.0, mean ± SD); 317 ± 75 µg/mL (≈ 504 µM) in data set [1] (Ex. 5-4: no ethanol, NaCl 8.58, CaCl2 0.58, KCl 0.3, trometamol 1.22 mg/ml, pH 8.0, mean ± SD).
As for `C=C(C)[C@]12C[C@@H](C)[C@@]34O[C@](Cc5ccccc5)(O[C@@H]1[C@@H]3C=C(COC(=O)Cc1ccc(O)c(OC)c1)C[C@]1(O)C(=O)C(C)=C[C@@H]41)O2` [Resiniferatoxin, 4-hydroxy-3-methoxy-benzeneacetic acid, [(2S,3aR,3bS,6aR,9aR,9bR, 10R,11aR)-3a,3b,6,6a,9a,10,11,11a-octahydro-6a-hydroxy-8,10-dimethyl-11a-(1-methylethenyl)-7-oxo-2-(phenylmethyl)-7H-2,9b-epoxyazuleno[5,4-e]-1,3-benzodioxol-5-yl]methyl ester], the “reduction in WOMAC total and subscale scores (pain, physical function and stiffness) compared to placebo” value in data set [2] (100 ng and 400 ng, at both 3 and 6 months) was “greater reduction”. Moreover, in data set [2] (100 ng or 400 ng intraarticular), the “pain reduction compared to placebo” value is given as “greater pain reduction”. Moreover, in data set [2] (intention-to-treat population), the “first trial visit at which reduction in VAS pain on motion was observed” value amounted to 8 days and the “last trial visit until which the effect lasted” value came out at 6 month. In data set [2] (setting [5]), the “analgesic onset after administration” value is on record as “within one week” and the “duration for which analgesia was evident during follow-up” value is “at least 3 months”. Further, the “subjects with severe adverse events” value in data set [3] (Resiniferatoxin 100 ng) is reported as 2 subjects. For the same molecule, the “subjects with severe adverse events” value in data set [3] (Resiniferatoxin 400 ng) came to 3 subjects. Further, in data set [3] (highly variable across treatment groups), the “injection site pain (procedural pain) compared to placebo” value is listed as “generally higher”. Moreover, in data set [3] (intraarticular injection, moderate-severe intensity in some subjects), the “time of peak injection site pain post-injection” value was “around 0.5 h”. The “injection site pain, return to baseline” value in data set [3] (post intraarticular injection) is recorded as no more than 3 h. In addition, the “safety profile and tolerability” value in data set [3] (setting [5]) is “good safety profile”. In data set [4] (5 μg, 12.5 μg, 20 μg and 30 μg cohorts, preliminary), the efficacy entry was “Preliminary efficacy was also observed”. Moreover, in data set [4] (onetime intraarticular injection up to 30 μg), the safety result is recorded as “demonstrated safety”.

Values taken from patent US20250228815A1, “LYOPHILIZED RESINIFERATOXIN” (Gruenenthal GmbH, priority 2024, published 2025).
